# Results taken from ChEMBL document CHEMBL1201862, “PubChem BioAssay data set” (2004).
# “And” between values parts separate entries of the source, which are not always exact repeats. Equal entries are not always repeated.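 Step 1: Grow cells in 96-well plates. Step 2: Expose to compound for 48 hours at 5 concentrations. Step 3: Interpolate endpoints linearly; if unreached, use highest concentration. The concentration for 50% growth inhibition is given as GI50.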 The source made the active and inactive calls. Rule as the data show it: active = GI50 up to about 1.1 µM and inactive = higher.
# Key:
# Test in all cases: DTP human tumour cell line panel, 48 h
# 786-0 = system: 786-0
# ACHN = system: ACHN
# BT-549 = system: BT-549
# EKVX = system: EKVX
# HCT-116 = system: HCT-116
# HL-60 = system: HL-60
# HOP-62 = system: HOP-62
# Hs-578T = system: Hs-578T
# KM12 = system: KM12
# M14 = system: M14
# MCF7 = system: MCF7
# MDA-MB-231 = system: MDA-MB-231
# NCI-H460 = system: NCI-H460
# OVCAR-3 = system: OVCAR-3
# SF-295 = system: SF-295
# SK-MEL-2 = system: SK-MEL-2
# SNB-19 = system: SNB-19
# U-251 = system: U-251
# UACC-62 = system: UACC-62
# SR = system: SR
SMILES,GI50 (786-0),GI50 (ACHN),GI50 (BT-549),GI50 (EKVX),GI50 (HCT-116),GI50 (HL-60),GI50 (HOP-62),GI50 (Hs-578T),GI50 (KM12),GI50 (M14),GI50 (MCF7),GI50 (MDA-MB-231),GI50 (NCI-H460),GI50 (OVCAR-3),GI50 (SF-295),GI50 (SK-MEL-2),GI50 (SNB-19),GI50 (U-251),GI50 (UACC-62),GI50 (SR)
CC(=O)/C=C1\Nc2sc(C)c(C)c2C(=O)S1,62.8 µM (inactive),74.8 µM (inactive),53 µM (inactive),24.9 µM (inactive),31.6 µM (inactive),32.1 µM (inactive),89.7 µM (inactive),20.5 µM (inactive),29.2 µM (inactive),97.7 µM (inactive),29.6 µM (inactive),88.3 µM (inactive),10 µM (inactive),44.1 µM (inactive),48 µM (inactive),24.2 µM (inactive),> 100 µM (inactive),50.2 µM (inactive),65.8 µM (inactive),–
O=C(COc1ccc(Cl)cc1Cl)N/N=C/C=C/c1ccc([N+](=O)[O-])o1,12.3 µM (inactive),4.63 µM (inactive),12.1 µM (inactive),17.5 µM (inactive),1.87 µM (inactive),3.76 µM (inactive),15.1 µM (inactive),1.87 µM (inactive),4.86 µM (inactive),2.72 µM (inactive),4.14 µM (inactive),6.95 µM (inactive),8.39 µM (inactive),4.59 µM (inactive),23.3 µM (inactive),3.27 µM (inactive),9.48 µM (inactive),15.7 µM (inactive),3.82 µM (inactive),–
O=C(C/N=C(\CN(c1ccccc1)c1ccccc1)Oc1c(Cl)cc(Cl)cc1Cl)n1cnc2ccccc21,> 100 µM (inactive),78.2 µM (inactive),22.6 µM (inactive),50.7 µM (inactive),34 µM (inactive),32.7 µM (inactive),> 100 µM (inactive),> 100 µM (inactive),96.6 µM (inactive),> 100 µM (inactive),71 µM (inactive),74 µM (inactive),> 100 µM (inactive),32.5 µM (inactive),> 100 µM (inactive),–,> 100 µM (inactive),82.6 µM (inactive),32.3 µM (inactive),33.9 µM (inactive)
COC(=O)C1OC(O[C@H]2CC[C@]3(C)[C@H]4CC=C5[C@@H]6CC(C)(C)CC[C@]6(C(=O)OC6OCC(O)C(O)C6OC6OC(C)C(OC7OCC(O)C(O)C7O)C(O)C6O)CC[C@@]5(C)[C@]4(C)CC[C@H]3C2(C)C)C(O)C(O)C1O (stereo not given in full),15.7 µM (inactive) and 17.5 µM (inactive),–,18.7 µM (inactive) and 19.9 µM (inactive),17.1 µM (inactive),17.1 µM (inactive) and 18.4 µM (inactive),21.2 µM (inactive) and 19.1 µM (inactive),17.9 µM (inactive) and 18.4 µM (inactive),18.2 µM (inactive) and 20.6 µM (inactive),15.6 µM (inactive) and 16.2 µM (inactive),15.3 µM (inactive) and 18.2 µM (inactive),13.5 µM (inactive) and 13 µM (inactive),–,34.5 µM (inactive) and 20 µM (inactive),39.5 µM (inactive) and 42.8 µM (inactive),18.2 µM (inactive) and 17.4 µM (inactive),19.7 µM (inactive) and 17.6 µM (inactive),13.6 µM (inactive) and 17.2 µM (inactive),18.4 µM (inactive) and 18.7 µM (inactive),18 µM (inactive) and 18.2 µM (inactive),13.1 µM (inactive) and 10.2 µM (inactive)
O=C(c1ccccc1)c1ccc2[nH]c(-c3c(Cl)c(Cl)c(Cl)c(Cl)c3C(=O)N/N=C/c3cccc(Oc4ccccc4)c3)nc2c1,> 100 µM (inactive),> 100 µM (inactive),93.8 µM (inactive),> 100 µM (inactive),76.6 µM (inactive),17.6 µM (inactive),65.2 µM (inactive),> 100 µM (inactive),> 100 µM (inactive),> 100 µM (inactive),42 µM (inactive),> 100 µM (inactive),–,75.7 µM (inactive),54.7 µM (inactive),46.2 µM (inactive),69.2 µM (inactive),54.7 µM (inactive),–,36.3 µM (inactive)
CCN1CCC(C)OP1(=O)Cc1ccccc1 (stereo not given),> 100 µM (inactive),> 100 µM (inactive),> 100 µM (inactive),> 100 µM (inactive),> 100 µM (inactive),–,> 100 µM (inactive),–,> 100 µM (inactive),> 100 µM (inactive),> 100 µM (inactive),> 100 µM (inactive),> 100 µM (inactive),46.5 µM (inactive),> 100 µM (inactive),> 100 µM (inactive),> 100 µM (inactive),> 100 µM (inactive),> 100 µM (inactive),> 100 µM (inactive)
CC1=C(/C=C/C(C)=C/C=C/C(C)=C/C(=O)Nc2ccc(O)cc2)C(C)(C)CCC1 [FENRETINIDE],2.58 µM (inactive),4.19 µM (inactive),6.52 µM (inactive),9.25 µM (inactive),4.06 µM (inactive),0.893 µM (active),5.46 µM (inactive),3.33 µM (inactive),3.92 µM (inactive),4.92 µM (inactive),2.65 µM (inactive),2.95 µM (inactive),4.63 µM (inactive),2.55 µM (inactive),2.85 µM (inactive),7.33 µM (inactive),6.5 µM (inactive),4.65 µM (inactive),2.12 µM (inactive),–
